Usually pIC50 stands for −log10 of the IC50, conventionally taken in molar units. A higher pIC50 goes with a small IC50.

Each structure is given as a SMILES string.

The source of these data is ChEMBL document CHEMBL3044812, “QSAR analysis of Mur B inhibitors with antibacterial properties discussing role of physico-chemical parameters” (Med Chem Res, 2011).

The nature of this assay: Inhibition of Escherichia coli murB-mediated eduction of enolpyruvyl uridine diphosphate N-acetylglucosamine to uridine diphosphate N-acetyl muramic acid.
`O=C(c1c(O)n(-c2ccc(Cl)cc2)n(-c2ccc(Cl)cc2)c1=O)C1CCCCC1`: the pIC50 amounted to 4.62.
Consider `COc1ccc(C(=O)c2c(O)n(-c3ccc(Cl)cc3)n(-c3ccc(Cl)cc3)c2=O)cc1`, for which the pIC50 is recorded as 4.796.
Compound `O=C(c1ccc(Cl)cc1)c1c(O)n(-c2ccc(Cl)cc2)n(-c2ccc(Cl)cc2)c1=O` had a pIC50 of 4.863.
`O=C(c1ccc(C(F)(F)F)cc1)c1c(O)n(-c2ccc(Cl)cc2)n(-c2ccc(Cl)cc2)c1=O` had a negative-log IC50 (pIC50) of 4.824.
`O=C(Nc1ccc(C(F)(F)F)cc1)c1c(O)n(-c2cccc(Cl)c2)n(-c2cccc(Cl)c2)c1=O` came in with a negative-log IC50 (pIC50) of 5.061.
Compound `O=C(Nc1ccccc1)c1c(O)n(-c2ccccc2)n(-c2ccccc2)c1=O` registered a pIC50 of 4.268.
Compound `O=C(Nc1ccc(Cl)c(Cl)c1)c1c(O)n(-c2ccc(Cl)c(Cl)c2)n(-c2ccc(Cl)c(Cl)c2)c1=O` returned a pIC50 of 5.319.
For the compound `O=C(Nc1ccc(Cl)cc1)c1c(O)n(-c2ccc(Cl)cc2)n(-c2ccc(Cl)cc2)c1=O`, the pIC50 was determined as 4.959.
Take `O=C(Nc1ccc(Cl)c(Cl)c1)c1c(O)n(-c2ccc(Cl)cc2)n(-c2ccc(Cl)cc2)c1=O`: the pIC50 is 4.886.
The result for `COc1ccc(NC(=O)c2c(O)n(-c3ccc(Cl)cc3)n(-c3ccc(Cl)cc3)c2=O)cc1` reads 5; that for `CCCCOc1ccc(C(=O)c2c(O)n(-c3ccc(Cl)cc3)n(-c3ccc(Cl)cc3)c2=O)cc1`, 5.347.
`O=C(c1ccc(OC(F)(F)F)cc1)c1c(O)n(-c2ccc(Cl)cc2)n(-c2ccc(Cl)cc2)c1=O` registered a pIC50 of 5.268.
With `O=C(c1ccc(-c2ccccc2)cc1)c1c(O)n(-c2ccc(Cl)cc2)n(-c2ccc(Cl)cc2)c1=O`, the pIC50 came to 5.215.
Consider `O=C(c1cccs1)c1c(O)n(-c2ccc(Cl)cc2)n(-c2ccc(Cl)cc2)c1=O`, for which the pIC50 was determined as 5.237.
For `COc1ccc(CC(=O)c2c(O)n(-c3ccc(Cl)cc3)n(-c3ccc(Cl)cc3)c2=O)cc1`, the pIC50 came to 4.398.
For `O=C(c1ccccc1)c1c(O)n(-c2ccc(Cl)cc2)n(-c2ccc(Cl)cc2)c1=O`, the pIC50 is reported as 5.009.
The compound `O=C(c1cccc(C(F)(F)F)c1)c1c(O)n(-c2ccc(Cl)cc2)n(-c2ccc(Cl)cc2)c1=O` yielded a pIC50 of 5.26.
Compound `O=C(c1cccc(Cl)c1)c1c(O)n(-c2ccc(Cl)cc2)n(-c2ccc(Cl)cc2)c1=O` displayed a pIC50 of 5.229.
As for `O=C(c1ccccc1Cl)c1c(O)n(-c2ccc(Cl)cc2)n(-c2ccc(Cl)cc2)c1=O`, the pIC50 came to 4.914.
Regarding `N#Cc1ccc(C(=O)c2c(O)n(-c3ccc(Cl)cc3)n(-c3ccc(Cl)cc3)c2=O)cc1`, the negative logarithm of the IC50 (pIC50) came out at 4.882.
On to `CCOC(=O)c1cccc(C(=O)c2c(O)n(-c3ccc(Cl)cc3)n(-c3ccc(Cl)cc3)c2=O)c1`, for which the pIC50 amounted to 4.754.
Regarding `O=C(c1ccc(O)cc1)c1c(O)n(-c2ccc(Cl)cc2)n(-c2ccc(Cl)cc2)c1=O`, the pIC50 stood at 4.66.
Consider `O=C(CCc1ccccc1)c1c(O)n(-c2ccc(Cl)cc2)n(-c2ccc(Cl)cc2)c1=O`, for which the pIC50 stood at 5.018.
The compound `CC(C(=O)c1c(O)n(-c2ccc(Cl)cc2)n(-c2ccc(Cl)cc2)c1=O)c1ccc(Br)cc1` (stereo not drawn) displayed a pIC50 of 5.252.
The result for `O=C(Nc1ccc(Cl)cc1)c1c(O)n(-c2ccccc2)n(-c2ccccc2)c1=O` reads 4.268.
The compound `O=C(Nc1ccc(Cl)cc1)c1c(O)n(-c2cccc(Cl)c2)n(-c2cccc(Cl)c2)c1=O` had a pIC50 of 5.066.
Regarding `Cc1ccc(NC(=O)c2c(O)n(-c3ccc(Cl)c(Cl)c3)n(-c3ccc(Cl)c(Cl)c3)c2=O)cc1`, the pIC50 stood at 5.319.
Then `O=C(Nc1ccc(Br)cc1)c1c(O)n(-c2ccccc2)n(-c2ccccc2)c1=O`, with 4.377.
